Measurements from patent US12371454B2, “Cyclic peptide compound having Kras inhibitory action” (priority 2019, dated 2025).
pIC50: −log10 of the molar value. Starred links: 1 amine or outer side, 2 acyl side, 3 side chain; linkers in the order of their positions; H or OH if unused. Positions of bridges follow the written chain, without caps; N, C: chain ends. Non-standard residues stand in square brackets, D forms with d. Residues, ends and D or L forms follow the SMILES beside them. *: point of attachment. NMeAbu(3,3-F2-piperidino) = CN[C@@H](CCN1CCCC(F)(F)C1)C(=O)O; hPhe(3-Cl-4-CF3) = N[C@@H](CCc1ccc(C(F)(F)F)c(Cl)c1)C(=O)O; hPhe(3-F,4-CF3) = N[C@@H](CCc1ccc(C(F)(F)F)c(F)c1)C(=O)O; NMePhe(4-Cl) = CN[C@@H](Cc1ccc(Cl)cc1)C(=O)O; NMedβ3hAla = C[C@H](CC(=O)[*:2])N(C)[*:1]; NMeGly(cPent) = CN[C@H](C(=O)O)C1CCCC1; Phe(3-I) = N[C@@H](Cc1cccc(I)c1)C(=O)O; X70 = CC(C)(O)COCCN(CC(=O)[*:2])[*:1]; NMeCha = CN[C@@H](CC1CCCCC1)C(=O)O; Gly(N-(CH2)2OEt) = CCOCCNCC(=O)O; NMeI = CC[C@H](C)[C@H](NC)C(=O)O; NMeD = CN[C@@H](CC(=O)O)C(=O)O; NMeL = CN[C@@H](CC(C)C)C(=O)O; Cba = N[C@@H](CC1CCC1)C(=O)O; Chg = N[C@H](C(=O)O)C1CCCCC1; NMeV = CN[C@H](C(=O)O)C(C)C; d(β3hA) = C[C@@H](N)CC(=O)O; NMeS = CN[C@@H](CO)C(=O)O; NMeA = CN[C@@H](C)C(=O)O; NMeAib = CNC(C)(C)C(=O)O; Nle = CCCC[C@H](N)C(=O)O; Piperidide = C1CCN(*)CC1; Pyrrolidide = C1CCN(*)C1; dNMeA = CN[C@H](C)C(=O)O; Ac5c = NC1(C(=O)O)CCCC1; Aze = O=C(O)[C@@H]1CCN1; X1 = FC1(F)CN(*)CC1(F)F; Sar = CNCC(=O)O; Propyl = CCC*

target: T1, Kras and SOS1 (biotin-tagged human Kras loaded with GDP, His-tagged human SOS1) (Homo sapiens, UniProt P01116, G12D); test: Protein-protein interaction inhibition between Kras and SOS1 (KrasGl2D-SOS PPI) using AlphaScreen; type: binding; conditions: AlphaScreen; biotin-tagged human Kras loaded with GDP, His-tagged human SOS1; read-out: KRAS G12D-SOS PPI IC50
T1 construct: made in house; host or cells: E. coli (stated for Kras only)
In short: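 Binding between SOS1 and Kras is detected as bead-proximity luminescence: illuminate Ni-conjugated donors (680 nm), collect 520-620 nm emission from streptavidin-conjugated acceptors; Kras carries biotin and GDP loaded after purification, SOS1 carries a His tag.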

T1 sequence (P01116 1-188 isoform P01116-2 G12D): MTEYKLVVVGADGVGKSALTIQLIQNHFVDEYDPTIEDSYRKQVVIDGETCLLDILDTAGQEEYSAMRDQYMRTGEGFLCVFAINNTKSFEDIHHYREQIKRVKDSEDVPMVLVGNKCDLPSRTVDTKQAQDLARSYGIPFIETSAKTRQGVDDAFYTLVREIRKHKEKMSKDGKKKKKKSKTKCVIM

SMILES | pIC50
CC[C@H](C)[C@@H]1NC(=O)[C@H](CC(C)C)N(C)C(=O)C[C@@H](C(=O)N2CC(F)(F)C(F)(F)C2)N(C)C(=O)[C@H](C(C)C)N(C)C(=O)C2(CCCC2)NC(=O)[C@@H]2CCCN2C(=O)[C@H](CCc2ccc(C(F)(F)F)c(Cl)c2)NC(=O)CN(C)C(=O)[C@H](CC2CCCCC2)N(C)C(=O)[C@@H]2CCN2C(=O)[C@H](C)N(C)C1=O [Compound 1136] ([NMeL]I[NMeA][Aze][NMeCha][Sar][hPhe(3-Cl-4-CF3)]P[Ac5c][NMeV][NMeD]-X1; lactam N-11) | 7.15
CCCC[C@@H]1NC(=O)[C@H](Cc2cccc(I)c2)NC(=O)CN(C)C(=O)[C@H](Cc2ccc(Cl)cc2)N(C)C(=O)CN(C)C(=O)CN(C)C(=O)[C@H]([C@@H](C)CC)NC(=O)[C@H](CC(C)C)N(C)C(=O)C[C@@H](C(=O)N2CCCCC2)N(C)C(=O)[C@H](CC2CCC2)NC(=O)C(C)(C)N(C)C1=O [Compound 1422] ([NMeL]I[Sar][Sar][NMePhe(4-Cl)][Sar][Phe(3-I)][Nle][NMeAib][Cba][NMeD]-Piperidide; lactam N-11) | 7.80
CC(C)C[C@H]1C(=O)N[C@@H](C2CCCCC2)C(=O)N(C)CC(=O)N(C)CC(=O)N(C)[C@@H](CC2CCCCC2)C(=O)N(C)CC(=O)N[C@@H](CCc2ccc(C(F)(F)F)c(F)c2)C(=O)N2CCC[C@H]2C(=O)NC2(CCCC2)C(=O)N(C)[C@@H](CC(C)C)C(=O)N[C@H](C)CC(=O)N1C [Compound 1527] (cyclo([Ac5c][NMeL][d(β3hA)][NMeL][Chg][Sar][Sar][NMeCha][Sar][hPhe(3-F,4-CF3)]P)) | 6.72
CC[C@H](C)[C@@H]1NC(=O)[C@H](C)N(C)C(=O)C[C@@H](C(=O)N2CCCC2)N(C)C(=O)[C@H](C(C)C)N(C)C(=O)C2(CCCC2)NC(=O)[C@@H]2CCCN2C(=O)[C@H](CCc2ccc(C(F)(F)F)c(Cl)c2)NC(=O)[C@@H](C)N(C)C(=O)[C@H](CC2CCCCC2)N(C)C(=O)[C@@H]2CCCN2C(=O)CN(C)C1=O [Compound 1715] ([NMeA]I[Sar]P[NMeCha][dNMeA][hPhe(3-Cl-4-CF3)]P[Ac5c][NMeV][NMeD]-Pyrrolidide; lactam N-11) | 8.62
CCCOC[C@H]1C(=O)N(C)CC(=O)N[C@@H](CCc2ccc(C(F)(F)F)c(Cl)c2)C(=O)N(CCOCC(C)(C)O)CC(=O)NC2(CCCC2)C(=O)N(C)[C@@H]([C@@H](C)CC)C(=O)N(C)[C@H](C)CC(=O)N(C)[C@@H](CC(C)C)C(=O)N[C@@H]([C@@H](C)CC)C(=O)N(C)[C@@H](C)C(=O)N2CC[C@H]2C(=O)N1C [Compound 2027] (cyclo([Ac5c][NMeI][NMedβ3hAla][NMeL]I[NMeA][Aze][NMeS](Propyl)[Sar][hPhe(3-Cl-4-CF3)][X70])) | 6.96
CC[C@H](C)[C@@H]1NC(=O)[C@H](C)N(C)C(=O)C[C@@H](C)N(C)C(=O)[C@H](CC(C)C)NC(=O)C(C)(C)N(C)C(=O)[C@H](CC(C)C)NC(=O)[C@H](CCc2ccc(C(F)(F)F)c(Cl)c2)NC(=O)CN(C)C(=O)[C@H](CC2CCCCC2)N(C)C(=O)[C@@H]2CCN2C(=O)[C@H](C)N(C)C1=O [Compound 1391] (cyclo([Aze][NMeCha][Sar][hPhe(3-Cl-4-CF3)]L[NMeAib]L[NMedβ3hAla][NMeA]I[NMeA])) | 7.19
CCOCCN1CC(=O)N(C)[C@@H](CC2CCCCC2)C(=O)N(C)CC(=O)N[C@@H](CCc2ccc(C(F)(F)F)c(Cl)c2)C(=O)N2CCC[C@H]2C(=O)NC2(CCCC2)C(=O)N(C)[C@@H](C(C)C)C(=O)N[C@H](C)CC(=O)N(C)[C@@H](CC(C)C)C(=O)N[C@@H]([C@@H](C)CC)C(=O)N(C)CC1=O [Compound 864] (cyclo([Ac5c][NMeV][d(β3hA)][NMeL]I[Sar][Gly(N-(CH2)2OEt)][NMeCha][Sar][hPhe(3-Cl-4-CF3)]P)) | 7.14
CC[C@H](C)[C@@H]1NC(=O)[C@H](C)N(C)C(=O)C[C@@H](C)NC(=O)[C@H](C(C)C)N(C)C(=O)C(C)(C)N(C)C(=O)[C@@H]2CCCN2C(=O)[C@H](CCc2ccc(C(F)(F)F)c(Cl)c2)NC(=O)CN(C)C(=O)[C@H](CC2CCCCC2)N(C)C(=O)CN(C)C(=O)CN(C)C1=O [Compound 93] (cyclo(I[Sar][Sar][NMeCha][Sar][hPhe(3-Cl-4-CF3)]P[NMeAib][NMeV][d(β3hA)][NMeA])) | 8.16
CC[C@H](C)[C@@H]1NC(=O)[C@H](CC(C)C)N(C)C(=O)C[C@@H](C(=O)N(C)C)N(C)C(=O)[C@H](C2CCCC2)N(C)C(=O)[C@H](C)NC(=O)[C@H](CCN2CCCC(F)(F)C2)N(C)C(=O)[C@H](CCc2ccc(C(F)(F)F)c(Cl)c2)NC(=O)CN(C)C(=O)[C@H](CC2CCCCC2)N(C)C(=O)[C@@H]2CCN2C(=O)[C@H](C)N(C)C1=O [Compound 1081] ([NMeL]I[NMeA][Aze][NMeCha][Sar][hPhe(3-Cl-4-CF3)][NMeAbu(3,3-F2-piperidino)]A[NMeGly(cPent)][NMeD]-NMe2; lactam N-11) | 7.60
